System: MCF7 complex spheroid growth, % test/control
Assay: Anticancer human tumor MCF7 cell line growth inhibition [Asc];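 further: spheroids exposed to compounds for 7 days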;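 on viability, T/C: 100% = DMSO vehicle control wells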
Conditions: for IC50: curve of first compound; for viability, T/C: stronger effect = lower value
Outline: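 Tumor cells were grown as multicellular spheroids with stromal HUVEC and mesenchymal stem cells and treated singly or in combination. Concentrations fell in half-log steps from the clinical Cmax, or from 10 microM where none was known.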

[1] = second compound 0.00949 µM, first compound 0.0316 µM
[2] = second compound 0.00949 µM, first compound 0.1 µM
[3] = second compound 0.00949 µM, first compound 0.316 µM
[4] = second compound 0.00949 µM, first compound 1 µM
[5] = second compound 0.00949 µM, first compound 3.16 µM
[6] = second compound 0.00949 µM, first compound 10 µM
[7] = second compound 0.03 µM, first compound 0.0316 µM
[8] = second compound 0.03 µM, first compound 0.1 µM
[9] = second compound 0.03 µM, first compound 0.316 µM
[10] = second compound 0.03 µM, first compound 1 µM
[11] = second compound 0.03 µM, first compound 3.16 µM
[12] = second compound 0.03 µM, first compound 10 µM
[13] = second compound 0.0949 µM, first compound 0.0316 µM
[14] = second compound 0.0949 µM, first compound 0.1 µM
[15] = second compound 0.0949 µM, first compound 0.316 µM
[16] = second compound 0.0949 µM, first compound 1 µM
[17] = second compound 0.0949 µM, first compound 3.16 µM
[18] = second compound 0.0949 µM, first compound 10 µM
[19] = second compound 0.3 µM, first compound 0.0316 µM
[20] = second compound 0.3 µM, first compound 0.1 µM
[21] = second compound 0.3 µM, first compound 0.316 µM
[22] = second compound 0.3 µM, first compound 1 µM
[23] = second compound 0.3 µM, first compound 3.16 µM
[24] = second compound 0.3 µM, first compound 10 µM
[25] = second compound 0.949 µM, first compound 0.0316 µM
[26] = second compound 0.949 µM, first compound 0.1 µM
[27] = second compound 0.949 µM, first compound 0.316 µM
[28] = second compound 0.949 µM, first compound 1 µM
[29] = second compound 0.949 µM, first compound 3.16 µM
[30] = second compound 0.949 µM, first compound 10 µM
[31] = second compound 3 µM, first compound 0.0316 µM
[32] = second compound 3 µM, first compound 0.1 µM
[33] = second compound 3 µM, first compound 0.316 µM
[34] = second compound 3 µM, first compound 1 µM
[35] = second compound 3 µM, first compound 3.16 µM
[36] = second compound 3 µM, first compound 10 µM

For C#Cc1c(F)ccc2cc(O)cc(-c3ncc4c(N5CC6CCC(C5)N6)nc(OCC56CCCN5CC(F)C6)nc4c3F)c12 (stereo not drawn) + CCN1C(C(=O)NC23CCC(C(=O)O)(CC2)CC3)C(c2cccc(Cl)c2F)C2(C(=O)Nc3cc(Cl)ccc32)C12CCCCC2, the IC50 (second compound 0.00949 µM) was greater than 10000 nM, the IC50 (second compound 0.03 µM) was greater than 10000 nM and the IC50 (second compound 0.0949 µM) was 59.8 nM. It also gave an IC50 (second compound 0.3 µM) of less than 31.6 nM, an IC50 (second compound 0.949 µM) of less than 31.6 nM and an IC50 (second compound 3 µM) of less than 31.6 nM. For the same compound, the viability, T/C [1] was 92.6%, the viability, T/C [2] was 114% and the viability, T/C [3] was 111%. It also gave a viability, T/C [4] of 102%, a viability, T/C [5] of 107% and a viability, T/C [6] of 76.4%. It also gave a viability, T/C [7] of 100%, a viability, T/C [8] of 81.7% and a viability, T/C [9] of 91.8%. The viability, T/C [10] was 81.2%, the viability, T/C [11] was 102% and the viability, T/C [12] was 70.7%. For the same compound, the viability, T/C [13] was 47.6%, the viability, T/C [14] was 60.5% and the viability, T/C [15] was 36.4%. It also gave a viability, T/C [16] of 42.2%, a viability, T/C [17] of 47.8% and a viability, T/C [18] of 32.9%. It also gave a viability, T/C [19] of 27.1%, a viability, T/C [20] of 24.6% and a viability, T/C [21] of 28.6%. The viability, T/C [22] was 27.4%, the viability, T/C [23] was 23.5% and the viability, T/C [24] was 19.9%. It also gave a viability, T/C [25] of 17.1%, a viability, T/C [26] of 19.2% and a viability, T/C [27] of 14.1%. The viability, T/C [28] was 17.8%, the viability, T/C [29] was 16.3% and the viability, T/C [30] was 10.8%. The viability, T/C [31] was 12.8%, the viability, T/C [32] was 11.4% and the viability, T/C [33] was 11.5%. The viability, T/C [34] was 10.2%, the viability, T/C [35] was 14.1% and the viability, T/C [36] was 7.87%.

C=C(F)C(=O)N1CCN(c2nc(OCC3CCCN3C)nc3c2CCN(c2cccc4cccc(Cl)c24)C3)CC1CC#N (stereo not drawn) + CCN1C(C(=O)NC23CCC(C(=O)O)(CC2)CC3)C(c2cccc(Cl)c2F)C2(C(=O)Nc3cc(Cl)ccc32)C12CCCCC2 gave an IC50 (second compound 0.00949 µM) of 3140 nM, an IC50 (second compound 0.03 µM) of 3270 nM and an IC50 (second compound 0.0949 µM) of 1180 nM. For the same compound, the IC50 (second compound 0.3 µM) was less than 31.6 nM, the IC50 (second compound 0.949 µM) was less than 31.6 nM and the IC50 (second compound 3 µM) was less than 31.6 nM. The viability, T/C [1] was 103%, the viability, T/C [2] was 115% and the viability, T/C [3] was 109%. It also gave a viability, T/C [4] of 89.8%, a viability, T/C [5] of 50.4% and a viability, T/C [6] of 0.16%. For the same compound, the viability, T/C [7] was 104%, the viability, T/C [8] was 77.1% and the viability, T/C [9] was 109%. For the same compound, the viability, T/C [10] was 69.3%, the viability, T/C [11] was 53.8% and the viability, T/C [12] was 0.23%. It also gave a viability, T/C [13] of 50.4%, a viability, T/C [14] of 52.5% and a viability, T/C [15] of 50.5%. The viability, T/C [16] was 57.5%, the viability, T/C [17] was 33.6% and the viability, T/C [18] was 0.14%. It also gave a viability, T/C [19] of 30.5%, a viability, T/C [20] of 28% and a viability, T/C [21] of 34.2%. It also gave a viability, T/C [22] of 34.8%, a viability, T/C [23] of 10.5% and a viability, T/C [24] of 0.24%. The viability, T/C [25] was 20.6%, the viability, T/C [26] was 20.7% and the viability, T/C [27] was 28.5%. The viability, T/C [28] was 17.1%, the viability, T/C [29] was 2.09% and the viability, T/C [30] was 0.2%. It also gave a viability, T/C [31] of 15.2%, a viability, T/C [32] of 15.4% and a viability, T/C [33] of 14.1%. The viability, T/C [34] was 11.8%, the viability, T/C [35] was 2.7% and the viability, T/C [36] was 0.44%.

For C=CC(=O)N1CCN(c2nc(=O)n(-c3c(C)ccnc3C(C)C)c3nc(-c4c(O)cccc4F)c(F)cc23)C(C)C1 (stereo not drawn) + CCN1C(C(=O)NC23CCC(C(=O)O)(CC2)CC3)C(c2cccc(Cl)c2F)C2(C(=O)Nc3cc(Cl)ccc32)C12CCCCC2, the IC50 (second compound 0.00949 µM) was greater than 10000 nM, the IC50 (second compound 0.03 µM) was greater than 10000 nM and the IC50 (second compound 0.0949 µM) was 585 nM. It also gave an IC50 (second compound 0.3 µM) of less than 31.6 nM, an IC50 (second compound 0.949 µM) of less than 31.6 nM and an IC50 (second compound 3 µM) of less than 31.6 nM. It also gave a viability, T/C [1] of 109%, a viability, T/C [2] of 104% and a viability, T/C [3] of 113%. For the same compound, the viability, T/C [4] was 107%, the viability, T/C [5] was 113% and the viability, T/C [6] was 91.1%. For the same compound, the viability, T/C [7] was 96.1%, the viability, T/C [8] was 93.7% and the viability, T/C [9] was 83.3%. It also gave a viability, T/C [10] of 68.2%, a viability, T/C [11] of 82.9% and a viability, T/C [12] of 59.8%. It also gave a viability, T/C [13] of 53.9%, a viability, T/C [14] of 56.4% and a viability, T/C [15] of 55.3%. The viability, T/C [16] was 42.5%, the viability, T/C [17] was 45.7% and the viability, T/C [18] was 35.5%. It also gave a viability, T/C [19] of 34.8%, a viability, T/C [20] of 33.5% and a viability, T/C [21] of 35.6%. For the same compound, the viability, T/C [22] was 33%, the viability, T/C [23] was 32% and the viability, T/C [24] was 32.6%. It also gave a viability, T/C [25] of 24.5%, a viability, T/C [26] of 23.1% and a viability, T/C [27] of 20.7%. For the same compound, the viability, T/C [28] was 25.2%, the viability, T/C [29] was 32.1% and the viability, T/C [30] was 21.4%. The viability, T/C [31] was 16.6%, the viability, T/C [32] was 17.1% and the viability, T/C [33] was 19.1%. For the same compound, the viability, T/C [34] was 18.3%, the viability, T/C [35] was 22.1% and the viability, T/C [36] was 24.2%.

In the case of CNC(C)C(=O)NC1CN(S(=O)(=O)c2cccc(S(=O)(=O)N3CCC4CCC(C(=O)NC(c5ccccc5)c5ccccc5)N4C(=O)C(NC(=O)C(C)NC)C3)c2)CCC2CCC(C(=O)NC(c3ccccc3)c3ccccc3)N2C1=O (stereo not drawn) + CCN1C(C(=O)NC23CCC(C(=O)O)(CC2)CC3)C(c2cccc(Cl)c2F)C2(C(=O)Nc3cc(Cl)ccc32)C12CCCCC2, the IC50 (second compound 0.00949 µM) is reported as 4.89 nM, the IC50 (second compound 0.03 µM) is reported as 4.19 nM and the IC50 (second compound 0.0949 µM) is reported as less than 3.16 nM. For the same compound, the IC50 (second compound 0.3 µM) was less than 3.16 nM, the IC50 (second compound 0.949 µM) was less than 3.16 nM and the IC50 (second compound 3 µM) was less than 3.16 nM. The viability, T/C (second compound 0.00949 µM, first compound 0.00316 µM) was 69.8%, the viability, T/C (second compound 0.00949 µM, first compound 0.01 µM) was 17.4% and the viability, T/C [1] was 16.6%. It also gave a viability, T/C [2] of 14.7%, a viability, T/C [3] of 17.1% and a viability, T/C [4] of 15.5%. For the same compound, the viability, T/C (second compound 0.03 µM, first compound 0.00316 µM) was 61.2%, the viability, T/C (second compound 0.03 µM, first compound 0.01 µM) was 13.8% and the viability, T/C [7] was 13.1%. It also gave a viability, T/C [8] of 19%, a viability, T/C [9] of 15.5% and a viability, T/C [10] of 15.8%. For the same compound, the viability, T/C (second compound 0.0949 µM, first compound 0.00316 µM) was 32.7%, the viability, T/C (second compound 0.0949 µM, first compound 0.01 µM) was 8.77% and the viability, T/C [13] was 9.56%. For the same compound, the viability, T/C [14] was 11.9%, the viability, T/C [15] was 11.5% and the viability, T/C [16] was 16%. It also gave a viability, T/C (second compound 0.3 µM, first compound 0.00316 µM) of 15.1%, a viability, T/C (second compound 0.3 µM, first compound 0.01 µM) of 8.53% and a viability, T/C [19] of 9.64%. For the same compound, the viability, T/C [20] was 9.86%, the viability, T/C [21] was 11% and the viability, T/C [22] was 12.2%. For the same compound, the viability, T/C (second compound 0.949 µM, first compound 0.00316 µM) was 10.9%, the viability, T/C (second compound 0.949 µM, first compound 0.01 µM) was 10% and the viability, T/C [25] was 7.29%. For the same compound, the viability, T/C [26] was 8.83%, the viability, T/C [27] was 10.5% and the viability, T/C [28] was 12%. It also gave a viability, T/C (second compound 3 µM, first compound 0.00316 µM) of 11.6%, a viability, T/C (second compound 3 µM, first compound 0.01 µM) of 9.65% and a viability, T/C [31] of 9.98%. It also gave a viability, T/C [32] of 9.21%, a viability, T/C [33] of 12.1% and a viability, T/C [34] of 12.5%.

Reference: PubChem BioAssay AID1963445 (Molecular Pharmacology Branch, DTP, NCI, 2024)
